Among the test systems are 786-0; SF-539; SR; SK-MEL-5; SN12C; OVCAR-5; RXF 393; UO-31; HT-29; UACC-257; NCI-H226; CAKI-1; Malme-3M; SK-OV-3; OVCAR-4.
Common to all, as to experiment: growth of human tumour cells (NCI), 48 h

The structures appear in SMILES notation.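 Each compound was tested at five concentrations against cells in 96-well plates for 48 hours. Here, GI50 denotes the concentration required for 50% inhibition of growth.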 Activity calls are given as the source filed them. Cut-off read from the data, not from the text of the source: active = GI50 up to about 1.1 µM and inactive = higher.

Consider `CCCCCCc1cc(C(=O)Nc2cccc(C(F)(F)F)c2)nc(N)n1`, for which the GI50 in the assay with 786-0, in the assay on SF-539, with SR, with SK-MEL-5, in the assay on SN12C and in the assay on OVCAR-5 was > 100 µM (inactive) throughout. For the same molecule, the GI50 in the assay with RXF 393, in the assay with UO-31, with HT-29, with UACC-257, in the assay with NCI-H226 and with CAKI-1 was > 100 µM (inactive) each time. The GI50 in the assay on Malme-3M, in the assay on SK-OV-3 and with OVCAR-4 was > 100 µM (inactive) in each case.

Consider `C/C(=N\O)c1sc(-n2nc(-c3ccccc3)cc2-c2ccccc2)nc1C`, for which the GI50 in the assay on 786-0 was 11.2 µM (inactive); in the assay on SF-539, 12.2 µM (inactive); in the assay on SR it was 15.3 µM (inactive); in the assay on SK-MEL-5, 12 µM (inactive); in the assay on SN12C, 6.79 µM (inactive); in the assay with OVCAR-5 it was > 10 µM (inactive). The GI50 with RXF 393 is > 10 µM (inactive); with UO-31, 10.6 µM (inactive); in the assay with HT-29, 13 µM (inactive); in the assay with UACC-257, 13.6 µM (inactive); in the assay with NCI-H226, 12.3 µM (inactive); with CAKI-1, 13.1 µM (inactive). The GI50 was 16.9 µM (inactive) with Malme-3M, > 10 µM (inactive) in the assay on SK-OV-3 and > 10 µM (inactive) in the assay on OVCAR-4.

For `N#CC1=C(c2ccccc2)C(O)(c2ccccc2)NC1=O` (stereo not given), the GI50 with 786-0 is > 100 µM (inactive); with SF-539, 27.7 µM (inactive); with SR, 44.2 µM (inactive); in the assay with SK-MEL-5, 68.1 µM (inactive); with SN12C, 48.3 µM (inactive); in the assay on OVCAR-5, 39.3 µM (inactive). Also, the GI50 with RXF 393 was > 100 µM (inactive); with UO-31, 82.8 µM (inactive); in the assay on HT-29, 41.1 µM (inactive); with UACC-257, > 100 µM (inactive); in the assay with NCI-H226, 51.5 µM (inactive); with CAKI-1 it was > 100 µM (inactive). Moreover, the GI50 with Malme-3M is 25.2 µM (inactive); in the assay on SK-OV-3, 32.7 µM (inactive); in the assay with OVCAR-4 it was > 100 µM (inactive).

With `CCOC(=O)C(=O)Nc1ccc(Cl)c(C(F)(F)F)c1`, the GI50 with 786-0, in the assay with SF-539, in the assay on SR, in the assay on SK-MEL-5, in the assay with SN12C and in the assay on OVCAR-5 was > 100 µM (inactive) each time. Further, the GI50 in the assay with RXF 393, in the assay on UO-31, in the assay with HT-29, with UACC-257, in the assay with NCI-H226 and in the assay on CAKI-1 was > 100 µM (inactive) in each case. In addition, the GI50 in the assay on Malme-3M, with SK-OV-3 and with OVCAR-4 was > 100 µM (inactive) in each case.

For the molecule `CCCCN(C)CC(C(C)=O)C(c1ccccc1)c1c(O)c2ccccc2oc1=O` (stereo not given), the GI50 in the assay with 786-0, with SF-539, in the assay on SR, in the assay on SK-MEL-5, with SN12C and with OVCAR-5 was > 100 µM (inactive) in each case. Further, the GI50 with RXF 393, in the assay on UO-31, in the assay with HT-29, in the assay on UACC-257, with NCI-H226 and in the assay with CAKI-1 was > 100 µM (inactive) throughout. In addition, the GI50 in the assay with Malme-3M, with SK-OV-3 and in the assay on OVCAR-4 was > 100 µM (inactive) each time.

Consider `COC(=O)C1=C(c2ccc3c(c2)OCO3)OC(c2ccc3c(c2)OCO3)C1` (stereo not given), for which the GI50 in the assay with 786-0 was > 100 µM (inactive); in the assay on SF-539 it was > 100 µM (inactive); with SR, 74.5 µM (inactive); with SK-MEL-5, 68.5 µM (inactive); in the assay on SN12C, > 100 µM (inactive); in the assay on OVCAR-5 it was > 100 µM (inactive). Besides, the GI50 in the assay on RXF 393 was 68.5 µM (inactive); with UO-31, 38.2 µM (inactive); with HT-29, > 100 µM (inactive); in the assay with UACC-257, 69.7 µM (inactive); with NCI-H226, > 100 µM (inactive); with CAKI-1 it was > 100 µM (inactive). The GI50 in the assay on Malme-3M, with SK-OV-3 and with OVCAR-4 was > 100 µM (inactive) in each case.

Take `CCCCCCCCCc1cc(=O)c2ccc(O)cc2o1`: the GI50 in the assay with 786-0 is 39.8 µM (inactive); in the assay with SF-539 it was 44.4 µM (inactive); with SR it was 24.3 µM (inactive); in the assay with SK-MEL-5, 43.5 µM (inactive); in the assay with SN12C, > 100 µM (inactive); with OVCAR-5, > 100 µM (inactive). Further, the GI50 in the assay with RXF 393 is 31.4 µM (inactive); with UO-31, 8.85 µM (inactive); with HT-29, > 100 µM (inactive); in the assay on UACC-257 it was 65.3 µM (inactive); in the assay with NCI-H226, 12.6 µM (inactive); with CAKI-1 it was 4.66 µM (inactive). The GI50 in the assay on Malme-3M is > 100 µM (inactive); with SK-OV-3, 60.3 µM (inactive); with OVCAR-4, 22.3 µM (inactive).

As to `C=C[C@]1(C)CCC2=C(CCC3C2(C)CCC[C@@]3(C)COC(C)=O)C1` (stereo not given in full), the GI50 is 17.3 µM (inactive) with 786-0; 20.9 µM (inactive) in the assay with SF-539; 18.6 µM (inactive) in the assay with SR; 16.9 µM (inactive) in the assay on SK-MEL-5; 16.8 µM (inactive) in the assay on SN12C; 18.2 µM (inactive) in the assay with OVCAR-5. Further, the GI50 is 22 µM (inactive) with RXF 393; 18.8 µM (inactive) with UO-31; 18.7 µM (inactive) with HT-29; 25.2 µM (inactive) with UACC-257; 18.2 µM (inactive) in the assay with NCI-H226; 20.5 µM (inactive) with CAKI-1. In addition, the GI50 in the assay on Malme-3M is 25 µM (inactive); in the assay on SK-OV-3, 18.5 µM (inactive); with OVCAR-4 it was 19.7 µM (inactive).

On to `COc1cc(C2c3cc4c(cc3[C@@H](OCCN(C)C)C3COC(=O)[C@H]23)OCO4)cc(OC)c1O` (stereo not given in full), for which the GI50 is 0.139 µM (active) in the assay with 786-0; 0.164 µM (active) with SF-539; < 0.01 µM (active) in the assay with SR; 0.183 µM (active) in the assay on SK-MEL-5; 0.151 µM (active) in the assay with SN12C; 0.771 µM (active) with OVCAR-5. Also, the GI50 is 0.396 µM (active) in the assay on RXF 393; 0.519 µM (active) in the assay with UO-31; 0.902 µM (active) with HT-29; 1.68 µM (inactive) with UACC-257; 0.0394 µM (active) in the assay on NCI-H226; 0.14 µM (active) in the assay with CAKI-1. For the same molecule, the GI50 in the assay on Malme-3M is 0.388 µM (active); in the assay on SK-OV-3, 0.163 µM (active); in the assay on OVCAR-4 it was 2.07 µM (inactive).

`Cn1c(=O)nc2n(-c3cc(C(F)(F)F)cc(C(F)(F)F)c3)c3ccccc3nc-2c1=O`: the GI50 with 786-0 was > 100 µM (inactive); with SF-539, > 100 µM (inactive); with SR it was > 100 µM (inactive); in the assay on SK-MEL-5 it was 8.18 µM (inactive); in the assay with SN12C it was > 100 µM (inactive); in the assay on OVCAR-5, > 100 µM (inactive). Besides, the GI50 in the assay with RXF 393 was 75.7 µM (inactive); in the assay on UO-31, > 100 µM (inactive); with HT-29, > 100 µM (inactive); in the assay on UACC-257, > 100 µM (inactive); with NCI-H226, > 100 µM (inactive); in the assay with CAKI-1, > 100 µM (inactive). Also, the GI50 with Malme-3M is > 100 µM (inactive); in the assay with SK-OV-3 it was > 100 µM (inactive); in the assay on OVCAR-4, 40.3 µM (inactive).

The values are drawn from ChEMBL document CHEMBL1201862, “PubChem BioAssay data set” (2004).
